Results as given in patent publication US10555532B2, “Plant growth-promoting bacteria and methods of use” (priority 2013, dated 2020).

How the values were obtained:
Corn = Corn growth, bacteria with plant-growth-promoting chemicals; type: in vivo; settings: 2 weeks
Protocol: (§1) The selected strains were grown in minimal media (KH2PO4 3 g, Na2HPO4 6 g, NH4Cl 1 g, NaCl 0.50 g, MgSO4 7H2O 0.15 g, CaCl2 2H2O 0.013 g, and glucose 1 g, per L dry weight).

Soybeans = test: Soybean growth, bacteria with plant-growth-promoting chemicals; type: in vivo; settings: 2 weeks
Protocol: as §1

Row | SMILES | Comparison to Uninoculated (Corn; corn height) | Avg. Height (cm) (Corn; corn, with or without 2,3-butanediol or yeast extract) | Comparison to Uninoculated (Soybeans; soybean height) | Avg. Height (cm) (Soybeans; soybeans, with or without glycerol, 2,3-butanediol or yeast extract)
1 | CC(O)C(C)O (stereo not shown) [Uninoculated and 2,3-butanediol, 2,3-butanediol] | 105.8% | 16.03 cm | – | –
2 | OCC(O)CO [Uninoculated and Glycerol, glycerol] | – | – | 109.8% | 12.34 cm
